Measured values taken from patent US10501482B2, “Compounds for treating spinal muscular atrophy” (Hoffmann-La Roche Inc., priority 2013, dated 2019).
Counter-ions that a name gives are not always drawn.

Tests used:
[1] = test system: full length SMN2 minigene mRNA (FL SMN2mini) in HEK293H cells stably transfected with the SMN2-A minigene construct; assay: SMN2 minigene mRNA splicing RT-qPCR assay in cultured cells; assay type: cell-based; details: Homo sapiens, HEK293-H, 24 hours, 7-point concentration curve, concentration giving 1.5-fold FL SMN2mini mRNA vs vehicle, read-out: EC1.5x minigene (EC1.5x concentration for production of full length SMN2 minigene mRNA)
Protocol: The reverse transcription-quantitative PCR-based (RT-qPCR) assay is used to quantify the level of the full length SMN2 minigene (referred to herein by the term “FL SMN2mini”) mRNA containing SMN2 exon 7 in a HEK293H cell line stably transfected with said minigene and treated with a test compound.
The SMN2-A minigene construct was prepared as described in International Patent Application WO2009/151546A1 page 145 paragraph [00400] to page 147 paragraph [00412](incl. FIG. 1 and FIG. 3 therein).
HEK293H cells stably transfected with the SMN2-A minigene construct (10,000 cells/well) are seeded in 200 μL of cell culture medium (DMEM plus 10% FBS, with 200 μg/mL hygromycin) in 96-well flat-bottom plates and the plate is immediately swirled to ensure proper dispersal of cells and the formation of an even monolayer of cells. Cells are allowed to attach for 6 hours. […] A solution of test compound (1 μL, 200× in DMSO) is added to each cell-containing well and the plate is incubated for 24 hours in a cell culture incubator (37° C., 5% CO2, 100% relative humidity). 2 replicates are prepared for each test compound concentration. The cells are then lysed in the Cells-To-Ct lysis buffer and the lysate is stored at −80° C.
Full length SMN2-A minigene and GAPDH mRNA are quantified using the primers and probes referenced in Table 1. Primer SMN Forward A (SEQ ID NO.1) hybridizes to a nucleotide sequence in exon 7 (nucleotide 22 to nucleotide 40), primer SMN Reverse A (SEQ ID NO.2) hybridizes to a nucleotide sequence in the coding sequence of Firefly luciferase, SMN Probe A (SEQ ID NO.3) hybridizes to a nucleotide sequence in exon 7 (nucleotide 50 to nucleotide 54) and exon 8 (nucleotide 1 to nucleotide 21). The combination of these three oligonucleotides detects only SMN1 or SMN2 minigenes (RT-qPCR) and will not detect endogenous SMN1 or SMN2 genes.
The SMN forward and reverse primers are used at final concentrations of 0.4 μM. The SMN probe is used at a final concentration of 0.15 μM. The GAPDH primers are used at final concentrations of 0.2 μM and the probe at 0.15 μM.
The SMN2-minigene GAPDH mix (15 μL total volume) is prepared by combining 7.5 μL of 2×RT-PCR buffer, 0.4 μL of 25×RT-PCR enzyme mix, 0.75 μL of 20×GAPDH primer-probe mix, 4.0075 μL of water, 2 μL of 10-fold diluted cell lysate, 0.06 μL of 100 μM SMN forward primer, 0.06 μL of 100 μM SMN reverse primer, and 0.225 μL of 100 μM SMN probe.
PCR is carried out at the following temperatures for the indicated time: Step 1: 48° C. (15 min); Step 2: 95° C. (10 min); Step 3: 95° C. (15 sec); Step 4: 60° C. (1 min); then repeat Steps 3 and 4 for a total of 40 cycles.
Each reaction mixture contains both SMN2-A minigene and GAPDH primers/probe sets (multiplex design), allowing simultaneous measurement of the levels of two transcripts.
The increase in the abundance of the FL SMN2mini mRNA relative to that in cells treated with vehicle control is determined from real-time PCR data using a modified ΔΔCt method (as described in Livak and Schmittgen, Methods, 2001, 25:402-8). The amplification efficiency E is calculated from the slope of the amplification curve for FL SMN2mini and GAPDH individually. The abundance of FL SMN2mini and GAPDH mRNA are then calculated as (1+E)^−Ct, where Ct is the threshold value for each amplicon. The abundance of FL SMN2mini mRNA is normalized to GAPDH mRNA abundance. The normalized FL SMN2mini mRNA abundance from test compound-treated samples is then divided by normalized FL SMN2mini mRNA abundance from vehicle-treated cells to determine the level of FL SMN2mini mRNA relative to vehicle control.
Table 2 provides EC1.5x concentrations for production of full length SMN2 minigene mRNA that was obtained from the 7-point concentration data generated according to the above procedure for particular compounds of the present invention.

SMN protein = SMN protein assay (HTRF) in cultured SMA patient fibroblast cells; assay type: cell-based; details: SMA Type 1 human fibroblasts GM03813, 48 hours; for EC1.5x SMN protein (EC1.5x concentration for SMN protein expression): 7-point concentration curve, concentration giving 1.5 times SMN protein vs vehicle; for max. fold increase (maximum fold increase of SMN protein): 7-point concentration data, fold vs vehicle control
Protocol: The SMN HTRF (homogeneous time resolved fluorescence) assay is used to quantify the level of SMN protein in SMA patient fibroblast cells treated with test compounds.
Cells are thawed and cultured in DMEM-10% FBS for 72 hours. Cells are trypsinized, counted and re-suspended to a concentration of 25,000 cells/mL in DMEM-10% FBS. The cell suspensions are plated at 5,000 cells per well in a 96 well microtiter plate and incubated for 3 to 5 hours. […] 1 μL of test compound solution is transferred to cell-containing wells and cells are incubated for 48 hours in a cell culture incubator (37° C., 5% CO2, 100% relative humidity). Triplicate samples are set up for each test compound concentration. After 48 hours, the supernatant is removed from the wells and 25 μL of the RIPA lysis buffer, containing protease inhibitors, is added to the wells and incubated with shaking at room temperature for 1 hour. 25 μL of the diluent is added and then 35 μL of the resulting lysate is transferred to a 384-well plate, where each well contains 5 μL of the antibody solution (1:100 dilution of anti-SMN d2 and anti-SMN kryptate in SMN reconstitution buffer). The plate is centrifuged for 1 minute to bring the solution to the bottom of the wells, then incubated overnight at room temperature. Fluorescence for each well of the plate at 665 nm and 620 nm is measured on an EnVision multilabel plate reader (Perkin-Elmer).
The normalized fluorescence signal is calculated for each sample, Blank and vehicle control well by dividing the signal at 665 nm by the signal at 620 nm. Normalizing the signal accounts for possible fluorescence quenching due to the matrix effect of the lysate. The ΔF value (a measurement of SMN protein abundance as a percent value) for each sample well is calculated by subtracting the normalized average fluorescence for the Blank control wells from the normalized fluorescence for each sample well, then dividing this difference by the normalized average fluorescence for the Blank control wells and multiplying the resulting value by 100. The ΔF value for each sample well represents the SMN protein abundance from test compound-treated samples. The ΔF value for each sample well is divided by the ΔF value for the vehicle control wells to calculate the fold increase in SMN protein abundance relative to the vehicle control. Table 3 provides EC1.5x concentrations for SMN protein expression that was obtained from the 7-point concentration data generated according to the above procedure for particular compounds of the present invention.
Table 4 provides the maximum fold increase of SMN protein that was obtained from the 7-point concentration data generated according to the above procedure for particular compounds of the present invention

| Compound | EC (1.5-fold) [1] [µM] | EC1.5x SMN protein (EC1.5x concentration for SMN protein expression) (SMN protein) [µM] | max. fold increase (maximum fold increase of SMN protein) (SMN protein) |
| --- | --- | --- | --- |
| Cc1cn2cc(NC(=O)c3ccc(N4CCNC(C)C4)cc3)nc2c(C)n1 (racemic) [Example 2, rac-N-(6,8-dimethyl-imidazo[1,2-a]-pyrazin-2-yl)-4-(3-methylpiperazin-1-yl)benzamide] | 0.14 | 0.2984 | 1.8878 |
| Cc1cn2cc(NC(=O)c3ccc(N4CCNC(C)C4)cc3F)nc2c(C)n1 (racemic) [Example 5, rac-N-(6,8-dimethyl-imidazo[1,2-a]-pyrazin-2-yl)-2-fluoro-4-(3-methyl-piperazin-1-yl)-benzamide] | 0.0612 | 0.107 | 1.7757 |
| Cc1cn2cc(NC(=O)c3ccc(N4CCNC(C)C4)nc3)nc2c(C)n1 (racemic) [Example 7, rac-N-(6,8-dimethyl-imidazo[1,2-a]-pyrazin-2-yl)-6-(3-methyl-piperazin-1-yl)nicotinamide] | 0.142 | 0.2834 | 1.7936 |
| Cc1cn2cc(NC(=O)c3ccc(N4CCNC(C)C4)cn3)nc2c(C)n1 (racemic) [Example 10, rac-N-(6,8-dimethyl-imidazo[1,2-a]-pyrazin-2-yl)-5-(3-methyl-piperazin-1-yl)picolinamide] | 0.665 | 0.329 | 1.735 |
| Cc1cn2cc(NC(=O)c3ccc(N4CCNC(C)C4)nc3)ccc2n1 (racemic) [Example 12, rac-N-(2-methyl-imidazo[1,2-a]-pyridin-6-yl)-6-(3-methyl-piperazin-1-yl)nicotinamide] | 0.312 | 0.7037 | 1.6512 |
| Cc1cn2cc(NC(=O)c3ccc(N4CCNC(C)C4)cn3)ccc2n1 (racemic) [Example 17, rac-N-(2-methyl-imidazo[1,2-a]-pyridin-6-yl)-5-(3-methyl-piperazin-1-yl)-picolinamide] | 0.233 | 0.5022 | 1.6966 |
| Cc1cn2cc(NC(=O)c3ccc(N4CCNC(C)C4)cc3F)ccc2n1 (racemic) [Example 18, rac-2-fluoro-N-(2 methylimidazo-[1,2-a]pyridin-6-yl)-4(3-methyl-piperazin-1-yl)-benzamide] | 0.0523 | 0.1346 | 1.7677 |
| Cc1cn2cc(NC(=O)c3ccc(N4CCNC(C)C4)nc3)cc(C(F)(F)F)c2n1 (racemic) [Example 20, rac-N-(2-methyl-8-(trifluoromethyl)-imidazo[1,2-a]-pyridin-6-yl)-6-(3-methyl-piperazin-1-yl)-nicotinamide] | 0.489 | 0.8065 | 1.7789 |
| Cc1nc2c(F)cc(NC(=O)c3ccc(N4CCNC(C)C4)nc3)cc2o1 (racemic) [Example 27, rac-N-(4-Fluoro-2-methylbenzo-oxazol-6-yl)-6-(3-methylpiperazin-1-yl)nicotinamide] | 0.0989 | 0.3964 | 1.6617 |
| Cc1nc2c(F)cc(NC(=O)c3ccc(N4CCNC(C)C4)cc3)cc2o1 (racemic) [Example 29, rac-N-(4-fluoro-2-methylbenzo[d]-oxazol-6-yl)-4-(3-methylpiperazin-1-yl)benzamide] | 0.267 | 0.4618 | 1.632 |
| Cc1cn2cc(NC(=O)c3ccc(N4CCNC(C)C4)cc3F)cc(C)c2n1 (racemic) [Example 37, rac-N-(2,8-dimethyl-imidazo[1,2-a]-pyridin-6-yl)-2-fluoro-4-(3-methylpiperazin-1-yl)benamide dihydrochloride] | 0.028 | 0.1196 | 1.7758 |
| Cc1nc2ccc(NC(=O)c3ccc(N4CCNC(C)C4)cc3F)cc2o1 (racemic) [Example 38, rac-2-fluoro-N-(2-methylbenzo[d]-oxazol-6-yl)-4-(3-methylpiperazin-1-yl)benzamide dihydrochloride] | 0.472 | 0.6124 | 1.8706 |
| Cc1cn2cc(NC(=O)c3ccc(N4CCNC(C)C4)cc3F)cc(F)c2n1 (racemic) [Example 39, rac-2-fluoro-N-(8-fluoro-2-methyl-imidazo[1,2-a]-pyridin-6-yl)-4-(3-methylpiperazin-1-yl)benzamide dihydrochloride] | 0.0168 | 0.0147 | 1.8791 |
| Cc1cn2cc(NC(=O)c3ccc(N4CCNC(C)C4)nc3)cc(F)c2n1 (racemic) [Example 42, rac-N-(8-fluoro-2-methylimidazo-[1,2-a]pyridin-6-yl)-6-(3-methyl-piperazin-1-yl)-nicotinamide dihydrochloride] | 0.0544 | 0.1488 | 1.6988 |
